Experimental data reported in patent US7537765B2, “Inhibition of HIV-1 replication by disruption of the processing of the viral capsid-spacer peptide 1 protein” (priority 2003, dated 2009).
Read-outs that look alike come from different tables or passages of the source.

Experiments:
[1] = system: NNRTI-resistant HIV-1 isolates; assay: NNRTI-resistant HIV-1 isolates in MT-2 cells, cell viability (XTT) endpoint; type: cell-based; conditions: X4, MT-2 cells, read-out: IC50
Experimental: The activity of DSB was tested against a panel of HIV-1 isolates resistant to approved drugs. These viruses were obtained from the NIH AIDS Research and Reference Reagent Program. Assays were performed using virus propagated in PBMCs with a p24 endpoint (above), or using cell line targets (MT-2 cells) and a cell killing endpoint. The MT-2 assay format was as follows. Serial dilutions of DSB, or each approved drug, were prepared in 96 well plates. To each sample well was added media containing MT-2 cells at 3×10^5 cells/mL and virus inoculum at a concentration necessary to result in 80% killing of the cell targets at 5 days post-infection (PI). On day 5 post-infection, virus-induced cell killing was determined by the XTT method and the inhibitory activity of the compound was determined.

HIV = conditions: chronically-infected cells, Kanamoto et al.; cited from earlier work
HIV-2ROD = assay: Gag processing (western blot) in chronically infected H9/HIV-2ROD cells; type: cell-based
Experimental: FIG. 2. […] Gag proteins were visualized using HIV-Ig (HIV-1) or monkey anti-SIVmac251 serum (HIV-2 and SIV; NIH AIDS Research and Reference Reagent Program).
In order to better define DSB's mechanism of action, a detailed examination was undertaken of the virus produced from HIV-1-infected cell lines treated with DSB. Briefly, H9 cells chronically infected with the HIV-1IIIB isolate were treated with DSB at 1 μg/mL for a period of 48 hrs. Indinavir was used as a control. At the 48 hr time-point, spent media was removed and fresh media containing compound was added. At 24, 48 and 72 hrs post fresh compound addition, both cells and supernatant were recovered for analysis. The level of virus in the culture supernatant was determined and western blots were used to characterize viral protein production in both cell-associated and cell-free virus. […] This defect took the form of an additional band in the western blots corresponding to p25 (FIG. 2). This p25 band results from the incomplete processing of the capsid CA-SP1 precursor. […] As discussed above, mutations at the p25 to p24 cleavage site that prevent processing are associated with defects in viral maturation and infectivity (Wiegers K. et al., J. Virol. 72:2846-54 (1998)).

[2] = system: NL4-3 A366V/G357S double mutant; assay: Virus replication assay of re-engineered NL4-3 mutants in Jurkat T cells (reverse transcriptase activity); type: cell-based, HIV-1
Experimental: In order to more extensively map the viral genetic determinants for DSB resistance, additional experiments were performed to select for viruses in vitro that are drug resistant. Multiple parallel cultures of Jurkat T cells (5×10^5 each) were transfected with the proviral DNA clone pNL4-3 in the presence or absence of 10-50 ng/ml DSB. The cells were passaged every two days, and fresh drug was added at each passage. Virus replication was monitored by measuring reverse transcriptase activity in culture supernatants. Virus was isolated from culture supernatants harvested at selected timepoints, and genomic DNA was amplified by RT-PCR using primers that spanned the coding region between the N-terminus of CA and the N-terminus of RT. The amplified product was then sequenced using the same set of primers.
In one experiment, an A366V mutation was identified in the SP1 region of NL4-3 virus cultured in the presence of DSB (note: numbering is relative to the Gag polyprotein). Upon further passaging, a double mutant was identified that contained a G357S mutation in CA as well as the A366V mutation in SP1. The A366V mutation was identified previously in experiments selecting for resistant variants of the RF isolate. […] Since serine is present at this position in isolates (such as RF) that are sensitive to DSB, the CA G357S mutation alone is not sufficient to confer resistance to DSB. […]

SIVmac239 chimeric virus = assay: Gag processing of SIVmac239 chimeric mutants with HIV-1 CA-SP1 residues (Western blot); type: cell-based; conditions: SIV DM chimeric virus (printed SWV.DM), 1 μg/ml
Excerpt: A panel of SIV chimeric constructs harboring various residues of NL4-3 CA-SP1 boundary region was generated using the SIVmac239 molecular clone by employing PCR and cloning procedures described above. SIV mac239 was used to generate the SIV DD and DE constructs. The SIV DD construct was used to generate SIV DM. Different SIV chimeric constructs were produced in the PCR by varying respective mutagenic upstream and downstream primers corresponding to each chimera (Table 1). Each of these parallel two adjacent PCR fragments was gel purified and directly used without phospohorylation treatment for a subsequent amplification with universal upstream primer (Primer. 31) and downstream primer (Primer 32). This product was gel purified, digested with BamHI and SbfI, and then ligated into the BamHI and SbfI sites of SIVmac239 proviral DNA clone. The proviral DNA clones were then screened by automatically sequencing using a Taq Dye Deoxy Terminator cycle Sequencer Kit (Applied Biosystems) individually using an internal primer (Primer. 39). Following the verification the mutations the proviral DNA clones were used for various future studies. […]
Residues A364 through V370 were inserted into the analogous position of the Gag SP1 domain in the DSB-resistant retrovirus SIV (Mac 239 isolate). […] Next, the effect of DSB on the Gag processing phenotype of each of the chimeric viruses was determined. […]

[3] = system: HIV-1 infectious molecular clone pNL4-3; assay: EM analysis of HeLa cells transfected with pNL4-3; type: cell-based; conditions: DSB-treated samples
Excerpt: FIG. 3. EM analysis of DSB-treated HIV-1 infected cells. […] Virions generated in the presence of DSB are characterized by an absence of conical, mature cores. In these samples the cores are uniformly spherical and often acentric. Secondly, many virions display an electron dense layer inside the lipid bilayer but outside the core (indicated with arrows in the DSB-treated sample panels).
HeLa cells were transfected with HIV-1 infectious molecular clone pNL4-3 and treated as described previously with DSB. Following treatment, DSB-treated infected cells were fixed in glutaraldehyde and analyzed by EM.

SMILES: C=C(C)[C@@H]1CC[C@]2(C(=O)O)CC[C@]3(C)[C@H](CC[C@@H]4[C@@]5(C)CC[C@H](OC(=O)CC(C)(C)C(=O)O)C(C)(C)[C@@H]5CC[C@]43C)[C@@H]12 [DSB, 3-O-(3′,3′-dimethylsuccinyl)betulinic acid]
- IC50 ([1]; isolate 3, NNRTI-resistant, Y181C): 1 nM
- IC50 ([1]; isolate 4, NNRTI-resistant, K103N Y181C): 1.3 nM
- release of virus (HIV): inhibits release of virus from chronically-infected cells
- antiviral activity (HIV-2ROD; HIV-2): lack of antiviral activity
- Gag processing (HIV-2ROD; HIV-2 chronically infected cell line, 1 μg/mL): normal Gag processing
- virus replication [2]: replicated efficiently in the absence or presence of DSB
- Gag processing phenotype (SIVmac239 chimeric virus): indicative of sensitivity to DSB
- virion morphology by EM [3]: no mature viral particles were observed
